In ChEMBL document CHEMBL1201862, “PubChem BioAssay data set” (2004):
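Each compound was tested at five concentrations against cells in 96-well plates for 48 hours. The concentration for 50% growth inhibition is given as GI50.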 Calls of active or inactive are those of the source. No stated cut-off is given here; in the data, active = GI50 up to about 1.1 µM and inactive = higher.

Legend:
Experiment in all cases: DTP human tumour cell line panel, 48 h
OVCAR-5 = system: OVCAR-5
SNB-19 = system: SNB-19
KM-20L2 = system: KM-20L2
SF-295 = system: SF-295
NCI-H226 = system: NCI-H226
NCI-H522 = system: NCI-H522
IGROV-1 = system: IGROV-1
SR = system: SR
OVCAR-8 = system: OVCAR-8
CCRF-CEM = system: CCRF-CEM
XF498 = system: XF498
EKVX = system: EKVX
SK-MEL-28 = system: SK-MEL-28
ACHN = system: ACHN
SNB-75 = system: SNB-75
HOP-92 = system: HOP-92
SF-268 = system: SF-268
HT-29 = system: HT-29
MOLT-4 = system: MOLT-4
M19-MEL = system: M19-MEL
HCC 2998 = system: HCC 2998
OVCAR-4 = system: OVCAR-4
786-0 = system: 786-0
RXF 393 = system: RXF 393
HOP-62 = system: HOP-62
HL-60 = system: HL-60
DMS-114 = system: DMS-114
NCI-H460 = system: NCI-H460
A498 = system: A498
SF-539 = system: SF-539
HOP-18 = system: HOP-18
DMS-273 = system: DMS-273
KM12 = system: KM12
HCT-116 = system: HCT-116
COLO 205 = system: COLO 205
LXFL 529 = system: LXFL 529
DLD-1 = system: DLD-1
NCI-H23 = system: NCI-H23
SN12C = system: SN12C
UO-31 = system: UO-31
TK-10 = system: TK-10
UACC-62 = system: UACC-62
SK-MEL-5 = system: SK-MEL-5
U-251 = system: U-251
SNB-78 = system: SNB-78
K562 = system: K562
M14 = system: M14
UACC-257 = system: UACC-257
SW-620 = system: SW-620
SK-OV-3 = system: SK-OV-3
SK-MEL-2 = system: SK-MEL-2
Malme-3M = system: Malme-3M
HCT-15 = system: HCT-15
A549 = system: A549
OVCAR-3 = system: OVCAR-3
CAKI-1 = system: CAKI-1
LOX IMVI = system: LOX IMVI
DU-145 = system: DU-145
MDA-MB-231 = system: MDA-MB-231
BT-549 = system: BT-549
PC-3 = system: PC-3
Hs-578T = system: Hs-578T
MCF7 = system: MCF7
NCI/ADR-RES = system: NCI/ADR-RES
MDA-N = system: MDA-N
RPMI-8226 = system: RPMI-8226
MDA-MB-435 = system: MDA-MB-435
T47D = system: T47D

## CC1=CC(=O)NCCN1C
OVCAR-5
  GI50: > 100 µM (inactive)
SNB-19
  GI50: > 100 µM (inactive)
KM-20L2
  GI50: > 100 µM (inactive)
SF-295
  GI50: > 100 µM (inactive)
NCI-H226
  GI50: > 100 µM (inactive)
NCI-H522
  GI50: > 100 µM (inactive)
IGROV-1
  GI50: > 100 µM (inactive)
SR
  GI50: > 100 µM (inactive)
OVCAR-8
  GI50: > 100 µM (inactive)
CCRF-CEM
  GI50: 75.2 µM (inactive)
XF498
  GI50: > 100 µM (inactive)
EKVX
  GI50: > 100 µM (inactive)
SK-MEL-28
  GI50: > 100 µM (inactive)
ACHN
  GI50: > 100 µM (inactive)
SNB-75
  GI50: > 100 µM (inactive)
HOP-92
  GI50: > 100 µM (inactive)
SF-268
  GI50: > 100 µM (inactive)
HT-29
  GI50: > 100 µM (inactive)
MOLT-4
  GI50: > 100 µM (inactive)
M19-MEL
  GI50: > 100 µM (inactive)
HCC 2998
  GI50: > 100 µM (inactive)
OVCAR-4
  GI50: > 100 µM (inactive)
786-0
  GI50: > 100 µM (inactive)
RXF 393
  GI50: > 100 µM (inactive)
HOP-62
  GI50: > 100 µM (inactive)
HL-60
  GI50: 45.9 µM (inactive)
DMS-114
  GI50: > 100 µM (inactive)
NCI-H460
  GI50: > 100 µM (inactive)
A498
  GI50: > 100 µM (inactive)
SF-539
  GI50: > 100 µM (inactive)
HOP-18
  GI50: > 100 µM (inactive)
DMS-273
  GI50: > 100 µM (inactive)
KM12
  GI50: > 100 µM (inactive)
HCT-116
  GI50: > 100 µM (inactive)
COLO 205
  GI50: > 100 µM (inactive)
LXFL 529
  GI50: > 100 µM (inactive)
DLD-1
  GI50: > 100 µM (inactive)
NCI-H23
  GI50: > 100 µM (inactive)
SN12C
  GI50: > 100 µM (inactive)
UO-31
  GI50: > 100 µM (inactive)
TK-10
  GI50: > 100 µM (inactive)
UACC-62
  GI50: > 100 µM (inactive)
SK-MEL-5
  GI50: > 100 µM (inactive)
U-251
  GI50: > 100 µM (inactive)
SNB-78
  GI50: > 100 µM (inactive)
K562
  GI50: 73.5 µM (inactive)
M14
  GI50: > 100 µM (inactive)
UACC-257
  GI50: > 100 µM (inactive)
SW-620
  GI50: 24.2 µM (inactive)
SK-OV-3
  GI50: > 100 µM (inactive)
SK-MEL-2
  GI50: > 100 µM (inactive)
Malme-3M
  GI50: > 100 µM (inactive)
HCT-15
  GI50: > 100 µM
A549
  GI50: > 100 µM (inactive)
OVCAR-3
  GI50: > 100 µM (inactive)
CAKI-1
  GI50: > 100 µM (inactive)
LOX IMVI
  GI50: 62.7 µM (inactive)

## c1cc2n(n1)CCN2
DU-145
  GI50: 3320 µM (inactive)
OVCAR-5
  GI50: 4300 µM (inactive)
SNB-19
  GI50: 4030 µM (inactive)
KM-20L2
  GI50: 2970 µM (inactive)
SF-295
  GI50: 348 µM (inactive)
NCI-H226
  GI50: 1960 µM (inactive)
NCI-H522
  GI50: 2300 µM (inactive)
IGROV-1
  GI50: 7380 µM (inactive)
SR
  GI50: 733 µM (inactive)
OVCAR-8
  GI50: 875 µM (inactive)
CCRF-CEM
  GI50: 186 µM (inactive)
XF498
  GI50: 431 µM (inactive)
EKVX
  GI50: 1770 µM (inactive)
SK-MEL-28
  GI50: 7740 µM (inactive)
ACHN
  GI50: 151 µM (inactive)
MDA-MB-231
  GI50: > 1500 µM (inactive)
SNB-75
  GI50: 3400 µM (inactive)
HOP-92
  GI50: 1590 µM (inactive)
BT-549
  GI50: 4840 µM (inactive)
PC-3
  GI50: 1160 µM (inactive)
Hs-578T
  GI50: > 1470 µM (inactive)
SF-268
  GI50: 1550 µM (inactive)
HT-29
  GI50: 3130 µM (inactive)
MOLT-4
  GI50: 348 µM (inactive)
MCF7
  GI50: 828 µM (inactive)
M19-MEL
  GI50: 6870 µM (inactive)
HCC 2998
  GI50: 1690 µM (inactive)
OVCAR-4
  GI50: 5550 µM (inactive)
786-0
  GI50: 1120 µM (inactive)
RXF 393
  GI50: 1390 µM (inactive)
HOP-62
  GI50: 3720 µM (inactive)
HL-60
  GI50: 238 µM (inactive)
DMS-114
  GI50: 1560 µM (inactive)
NCI-H460
  GI50: 820 µM (inactive)
A498
  GI50: 1150 µM (inactive)
SF-539
  GI50: 646 µM (inactive)
HOP-18
  GI50: 4030 µM (inactive)
NCI/ADR-RES
  GI50: 561 µM (inactive)
DMS-273
  GI50: 262 µM (inactive)
KM12
  GI50: 1810 µM (inactive)
HCT-116
  GI50: 1950 µM (inactive)
COLO 205
  GI50: 3680 µM (inactive)
MDA-N
  GI50: 4680 µM (inactive)
DLD-1
  GI50: 5420 µM (inactive)
NCI-H23
  GI50: 1060 µM (inactive)
SN12C
  GI50: 1240 µM (inactive)
UO-31
  GI50: 1320 µM (inactive)
TK-10
  GI50: > 1490 µM (inactive)
UACC-62
  GI50: 374 µM (inactive)
SK-MEL-5
  GI50: 847 µM (inactive)
RPMI-8226
  GI50: 1890 µM (inactive)
U-251
  GI50: 706 µM (inactive)
SNB-78
  GI50: 4740 µM (inactive)
K562
  GI50: 2000 µM (inactive)
M14
  GI50: 486 µM (inactive)
UACC-257
  GI50: 5980 µM (inactive)
SW-620
  GI50: 3430 µM (inactive)
SK-OV-3
  GI50: 3040 µM (inactive)
MDA-MB-435
  GI50: 3940 µM (inactive)
SK-MEL-2
  GI50: 6460 µM (inactive)
Malme-3M
  GI50: 3000 µM (inactive)
HCT-15
  GI50: 2140 µM
A549
  GI50: 1050 µM (inactive)
OVCAR-3
  GI50: 2280 µM (inactive)
T47D
  GI50: 347 µM (inactive)
CAKI-1
  GI50: 740 µM (inactive)
LOX IMVI
  GI50: 662 µM (inactive)
